Assay results: patent publication US10160762B2, “6-alkyl dihydropyrazolopyrimidinone compounds as PDE2 inhibitors” (Merck Sharp & Dohme Corp., priority 2015, dated 2018)

target: T1, human PDE2A1 (Homo sapiens, UniProt O00408); assay: IMAP FP PDE assay, human PDE2A1; type: biochemical; settings: Lab B; read-out: Human PDE2 Ki (nM) Lab B
T1 construct: GST; purchased BPS Bioscience (San Diego, Calif.) 60020; host or cells: insect cells
In short: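 GST-tagged human PDE2A1 from insect cells; substrate 50 nM FAM-cAMP containing 1000 nM cGMP in Tris pH 7.2/MgCl2/DTT buffer, enzyme giving 20% conversion. 60 min at room temperature, IMAP binding reagent, fluorescence polarization read. Apparent Ki from FP readings using apparent KM 10,000 nM; ten-point 3-fold titrations.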

T1 sequence (O00408 1-920 isoform O00408-2): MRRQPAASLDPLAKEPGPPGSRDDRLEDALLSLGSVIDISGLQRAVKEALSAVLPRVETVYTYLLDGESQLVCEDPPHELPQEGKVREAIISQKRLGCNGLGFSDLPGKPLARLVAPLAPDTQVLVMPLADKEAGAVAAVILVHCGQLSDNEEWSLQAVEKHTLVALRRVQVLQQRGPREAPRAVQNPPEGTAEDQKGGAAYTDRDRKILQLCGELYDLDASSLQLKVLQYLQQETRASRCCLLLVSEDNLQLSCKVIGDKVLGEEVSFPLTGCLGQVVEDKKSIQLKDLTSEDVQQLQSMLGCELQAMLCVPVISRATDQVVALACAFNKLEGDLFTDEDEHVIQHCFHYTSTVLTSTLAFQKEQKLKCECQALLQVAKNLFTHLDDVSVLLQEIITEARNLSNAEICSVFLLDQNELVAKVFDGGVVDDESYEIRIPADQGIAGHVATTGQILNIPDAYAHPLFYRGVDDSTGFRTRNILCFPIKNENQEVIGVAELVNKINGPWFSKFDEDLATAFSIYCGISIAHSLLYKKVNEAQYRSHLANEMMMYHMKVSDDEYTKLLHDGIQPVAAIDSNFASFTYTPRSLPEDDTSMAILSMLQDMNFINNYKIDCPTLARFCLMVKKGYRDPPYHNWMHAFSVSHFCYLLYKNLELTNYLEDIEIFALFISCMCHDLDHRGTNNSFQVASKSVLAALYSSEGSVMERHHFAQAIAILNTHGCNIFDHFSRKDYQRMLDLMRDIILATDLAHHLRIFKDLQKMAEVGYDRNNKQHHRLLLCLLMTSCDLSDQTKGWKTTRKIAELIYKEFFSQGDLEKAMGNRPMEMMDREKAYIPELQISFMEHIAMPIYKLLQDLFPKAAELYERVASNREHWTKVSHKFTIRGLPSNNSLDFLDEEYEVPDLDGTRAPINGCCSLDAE

Row | Structure (SMILES) | Ki [nM]
1 | CC(=O)c1ccc(C(C)n2nc(CO)c3c(=O)[nH]c(C)nc32)cc1 (single isomer, unassigned) [Example 290] | > 2960
2 | CC(=O)c1ccc(C(C)n2nc(CO)c3c(=O)[nH]c(C)nc32)cc1 (single isomer, unassigned) [Example 291] | 104
3 | CC(c1ccc(C(F)(F)F)cc1)n1nc(CO)c2c(=O)[nH]c(C3CC3)nc21 (single isomer, unassigned) [Example 299, (R)- or (S)-6-Cyclopropyl-3-(hydroxymethyl)-1-{1-[4-(trifluoromethyl)phenyl]ethyl}-1,5-dihydro-4H-pyrazolo[3,4-d]pyrimidin-4-one] | 157
4 | CC(c1ccc(C(F)(F)F)cc1)n1nc(CO)c2c(=O)[nH]c(C3CC3)nc21 (single isomer, unassigned) [Example 300, (S)- or (R)-6-Cyclopropyl-3-(hydroxymethyl)-1-{1-[4-(trifluoromethyl)phenyl]ethyl}-1,5-dihydro-4H-pyrazolo[3,4-d]pyrimidin-4-one] | 2.8
5 | CCc1nc2c(c(CO)nn2C(C)c2ccc(C(F)(F)F)cc2)c(=O)[nH]1 (single isomer, unassigned) [Example 301, (R)- or (S)-6-Ethyl-3-(hydroxymethyl)-1-{1-[4-(trifluoromethyl)phenyl]ethyl}-1,5-dihydro-4H-pyrazolo[3,4-d]pyrimidin-4-one] | 4.7
6 | CCc1nc2c(c(CO)nn2C(C)c2ccc(C(F)(F)F)cc2)c(=O)[nH]1 (single isomer, unassigned) [Example 302, (S)- or (R)-6-Ethyl-3-(hydroxymethyl)-1-{1-[4-(trifluoromethyl)phenyl]ethyl}-1,5-dihydro-4H-pyrazolo[3,4-d]pyrimidin-4-one] | 116
7 | CCCc1nc2c(c(CO)nn2C(C)c2ccc(C(F)(F)F)cc2)c(=O)[nH]1 (single isomer, unassigned) [Example 303, (R)- or (S)-3-(Hydroxymethyl)-6-propyl-1-(1-(4-(trifluoromethyl)phenyl)ethyl)-1,5-dihydro-4H-pyrazolo[3,4-d]pyrimidin-4-one] | 4.7
8 | CCCc1nc2c(c(CO)nn2C(C)c2ccc(C(F)(F)F)cc2)c(=O)[nH]1 (single isomer, unassigned) [Example 304, (S)- or (R)-3-(Hydroxymethyl)-6-propyl-1-(1-(4-(trifluoromethyl)phenyl)ethyl)-1,5-dihydro-4H-pyrazolo[3,4-d]pyrimidin-4-one] | 263
9 | CC(C)Cc1nc2c(c(CO)nn2C(C)c2ccc(C(F)(F)F)cc2)c(=O)[nH]1 (single isomer, unassigned) [Example 305, (R)- or (S)-3-(Hydroxy-methyl)-6-isobutyl-1-(1-(4-(trifluoromethyl)phenyl)ethyl)-1,5-dihydro-4H-pyrazolo-[3,4-d]pyrimidin-4-one] | 17
10 | CC(C)Cc1nc2c(c(CO)nn2C(C)c2ccc(C(F)(F)F)cc2)c(=O)[nH]1 (single isomer, unassigned) [Example 306, (S)- or (R)-3-(Hydroxy-methyl)-6-isobutyl-1-(1-(4-(trifluoromethyl)phenyl)ethyl)-1,5-dihydro-4H-pyrazolo[3,4-d]pyrimidin-4-one] | 568
11 | CC(c1ccc(C(F)(F)F)cc1)n1nc(CO)c2c(=O)[nH]c(CC3CCCC3)nc21 (single isomer, unassigned) [Example 307, (R)- or (S)-6-(Cyclopentyl-methyl)-3-(hydroxymethyl)-1-(1-(4-(trifluoromethyl)-phenyl)ethyl)-1,5-dihydro-4H-pyrazolo[3,4-d]pyrimidin-4-one] | 13
12 | CC(c1ccc(C(F)(F)F)cc1)n1nc(CO)c2c(=O)[nH]c(CC3CCCC3)nc21 (single isomer, unassigned) [Example 308, (S)- or (R)-6-(Cyclopentyl-methyl)-3-(hydroxymethyl)-1-(1-(4-(trifluoromethyl)phenyl)ethyl)-1,5-dihydro-4H-pyrazolo[3,4-d]pyrimidin-4-one] | 329
13 | CC(c1ccc(C(F)(F)F)cc1)n1nc(CO)c2c(=O)[nH]c(CC3CC3)nc21 (single isomer, unassigned) [Example 309, (R)- or (S)-6-(Cyclopropyl-methyl)-3-(hydroxymethyl)-1-(1-(4-(trifluoromethyl)phenyl)ethyl)-1,5-dihydro-4H-pyrazolo[3,4-d]pyrimidin-4-one] | 420
14 | CC(c1ccc(C(F)(F)F)cc1)n1nc(CO)c2c(=O)[nH]c(CC3CC3)nc21 (single isomer, unassigned) [Example 310, (S)- or (R)-6-(Cyclopropyl-methyl)-3-(hydroxymethyl)-1-(1-(4-(trifluoromethyl)phenyl)ethyl)-1,5-dihydro-4H-pyrazolo[3,4-d]pyrimidin-4-one] | 11
15 | CC(c1ccc(C(F)(F)F)cc1)n1nc(CO)c2c(=O)[nH]c(C3CCCO3)nc21 (single isomer, unassigned) [Example 311, (R,R)- or (S,S)- or (R,S)- or (S,R)-3-(Hydroxymethyl)-6-(tetrahydrofuran-2-yl)-1-(1-(4-(trifluoromethyl)-phenyl)ethyl)-1,5-dihydro-4H-pyrazolo[3,4-d]pyrimidin-4-one] | ~1210
16 | CC(c1ccc(C(F)(F)F)cc1)n1nc(CO)c2c(=O)[nH]c(C3CCCO3)nc21 (single isomer, unassigned) [Example 312, (S,S)- or (R,S)- or (S,R)- or (R,R)-3-(Hydroxymethyl)-6-(tetrahydrofuran-2-yl)-1-(1-(4-(trifluoromethyl-)phenyl)ethyl)-1,5-dihydro-4H-pyrazolo[3,4-d]pyrimidin-4-one] | ~1860
17 | CC(c1ccc(C(F)(F)F)cc1)n1nc(CO)c2c(=O)[nH]c(C3CCCO3)nc21 (single isomer, unassigned) [Example 313, (R,S)- or (S,R)- or (R,R)- or (S,S)-3-(Hydroxymethyl)-6-(tetrahydrofuran-2-yl)-1-(1-(4-(trifluoromethyl)-phenyl)ethyl)-1,5-dihydro-4H-pyrazolo[3,4-d]pyrimidin-4-one] | 22
18 | CC(c1ccc(C(F)(F)F)cc1)n1nc(CO)c2c(=O)[nH]c(C3CCCO3)nc21 (single isomer, unassigned) [Example 314, (S,R)- or (R,R)- or (S,S)- or (R,S)-3-(Hydroxymethyl)-6-(tetrahydrofuran-2-yl)-1-(1-(4-(trifluoromethyl)-phenyl)ethyl)-1,5-dihydro-4H-pyrazolo[3,4-d]pyrimidin-4-one] | 38
19 | CC(c1ccc(S(F)(F)(F)(F)F)cc1)n1nc(CO)c2c(=O)[nH]c(C3CC3)nc21 (single isomer, unassigned) [Example 315, (R)- or (S)-6-Cyclopropyl-3-(hydroxymethyl)-1-{1-[4-(pentafluoro-sulfanyl)-phenyl]-ethyl}-1,5-dihydro-4H-pyrazolo[3,4-d]pyrimidin-4-one] | 3.3
20 | CC(c1ccc(S(F)(F)(F)(F)F)cc1)n1nc(CO)c2c(=O)[nH]c(C3CC3)nc21 (single isomer, unassigned) [Example 316, (S)- or (R)-6-Cyclopropyl-3-(hydroxymethyl)-1-{1-[4-(pentafluoro-sulfanyl)-phenyl]ethyl}-1,5-dihydro-4H-pyrazolo[3,4-d]pyrimidin-4-one] | 72
